Assay results taken from patent EP4806900A2, “RAS INHIBITORS” (Revolution Medicines, Inc., priority 2019, dated 2021).
Like-named read-outs stand apart in the source and are kept apart here.

Legend:
NSCLC (KRAS G12C) model = experiment: NSCLC (KRAS G12C) xenograft model, combinations; format: in vivo, mice
[1] = system: NCI-H358 KRASG12C xenograft; experiment: In vivo NSCLC K-Ras G12C xenograft model (tumor growth); design: species or system BALB/c nude mice
SW1573 = conditions: Canon et al., Nature 575:217-223 (2019); cited from earlier work
NCI-H358 (K-Ras G12C) = experiment: CellTiter-Glo cell viability assay, NCI-H358; format: cell-based, human
Outline: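 Compounds dispensed directly onto plated NCI-H358 cells; plates equilibrated to room temperature on day 5 before luminescence read-out. Signal normalized to mean DMSO control (%) and fitted by four-parameter logistic.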

[2] = single agents: Compound B 50 mg/kg intravenous twice weekly, cobimetinib […] daily oral
[3] = Table 5, read-out: H358 Cell Viability assay data (K-Ras G12C, IC50)
[4] = Homo sapiens, NCI-H358, read-out: H358 Cell Viability assay data (K-Ras G12C, IC50, uM), Table 5

SMILES: CCn1c(-c2cccnc2[C@H](C)OC)c2c3cc(ccc31)-c1cc(cc(O[Si](C(C)C)(C(C)C)C(C)C)c1)C[C@H](NC(=O)OC(C)(C)C)C(=O)N1CCC[C@H](N1)C(=O)OCC(C)(C)C2
- ring closure, yield of all isomers (from CCn1c(-c2cccnc2[C@H](C)OC)c(CC(C)(C)CO)c2cc(-c3cc(C[C@H](NC(=O)OC(C)(C)C)C(=O)N4CCC[C@@H](C(=O)O)N4)cc(O[Si](C(C)C)(C(C)C)C(C)C)c3)ccc21, ester bond, EDCI/HOBt/DIPEA, DCM, 15.3 mM, 25.0 °C, 16.0 h): 42%

SMILES: CCn1c(-c2cccnc2[C@H](C)OC)c2c3cc(ccc31)-c1cc(cc(C(F)F)c1)C[C@H](NC(=O)OC(C)(C)C)C(=O)N1CCC[C@H](N1)C(=O)OCC(C)(C)C2
- ring closure, yield of all isomers (from CCn1c(-c2cccnc2[C@H](C)OC)c(CC(C)(C)CO)c2cc(-c3cc(C[C@H](NC(=O)OC(C)(C)C)C(=O)N4CCC[C@@H](C(=O)O)N4)cc(C(F)F)c3)ccc21, ester bond, EDCI/HOBt/DIPEA, DCM, 16.0 h): 51%

SMILES: CCn1c(-c2ccccc2COC)c2c3cc(ccc31)-c1cc(cc([N+](=O)[O-])c1)C[C@H](NC(=O)OC(C)(C)C)C(=O)N1CCC[C@H](N1)C(=O)OCC(C)(C)C2
- ring closure, yield of all isomers (from CCn1c(-c2ccccc2COC)c(CC(C)(C)CO)c2cc(-c3cc(C[C@H](NC(=O)OC(C)(C)C)C(=O)N4CCC[C@@H](C(=O)O)N4)cc([N+](=O)[O-])c3)ccc21, ester bond, EDCI/HOBt/DIPEA, DCM, 6.4 mM, 25.0 °C, 16.0 h): 73%

SMILES: CCn1c(-c2cccnc2[C@H](C)OC)c2c3cc(ccc31)-c1nc(co1)C[C@H](NC(=O)OC(C)(C)C)C(=O)N1CCC[C@H](N1)C(=O)OCC(C)(C)C2
- ring closure, yield of all isomers (from CCn1c(-c2cccnc2[C@H](C)OC)c(CC(C)(C)COC(=O)[C@@H]2CCCN(C(=O)[C@H](Cc3coc(Br)n3)NC(=O)OC(C)(C)C)N2)c2cc(B3OC(C)(C)C(C)(C)O3)ccc21, cc_pd bond, XPhos Pd G3, dioxane, […], 70.0 °C, 4.0 h): 56%

SMILES: CCn1c(-c2cccnc2[C@H](C)OC)c2c3cc(ccc31)-c1nc(nn1C)C[C@H](NC(=O)OC(C)(C)C)C(=O)N1CCC[C@H](N1)C(=O)OCC(C)(C)C2
- ring closure, yield of all isomers (from CCn1c(-c2cccnc2[C@H](C)OC)c(CC(C)(C)COC(=O)[C@@H]2CCCN(C(=O)[C@H](Cc3nc(Br)n(C)n3)NC(=O)OC(C)(C)C)N2)c2cc(B3OC(C)(C)C(C)(C)O3)ccc21, cc_pd bond, XPhos Pd G3, dioxane, 71.7 mM, 75.0 °C, 3.0 h): 56.8%

SMILES: CCn1c(-c2cccnc2[C@H](C)OC)c2c3cc(ccc31)-c1cnc(o1)C[C@H](NC(=O)OC(C)(C)C)C(=O)N1CCC[C@H](N1)C(=O)OCC(C)(C)C2
- ring closure, yield of all isomers (from CCn1c(-c2cccnc2[C@H](C)OC)c(CC(C)(C)CO)c2cc(-c3cnc(C[C@H](NC(=O)OC(C)(C)C)C(=O)N4CCC[C@@H](C(=O)O)N4)o3)ccc21, ester bond, EDCI/HOBt, DIPEA, DCM, 13.7 mM, 0.0 °C, 2.0 h): 56.4%

SMILES: O=C(c1ccc(F)c(F)c1Nc1ccc(I)cc1F)N1CC(O)([C@@H]2CCCCN2)C1 [cobimetinib]
- tumor response, single agent (FIG. 3A) (NSCLC (KRAS G12C) model; Compound B 50 mg/kg intermittent intravenous or cobimetinib […] daily oral, alone): tumor growth inhibition
- tumor regressions at end of study, single agent group (FIG. 3B) (NSCLC (KRAS G12C) model; each single agent): no tumor regressions
- effect on tumor growth [1, 2]: tumor growth inhibition
- mice with tumor regression (greater than 10% reduction of tumor volume at end of study) [1, 2]: no tumor regressions

SMILES: CO[C@@H](C)c1ncccc1-c1c2c3cc(ccc3n1CC(F)(F)F)N1CCO[C@@H](C[C@H](NC(=O)OCc3ccccc3)C(=O)N3CCC[C@H](N3)C(=O)OCC(C)(C)C2)C1
- ring closure, yield of all isomers (from CO[C@@H](C)c1ncccc1-c1c(CC(C)(C)CO)c2cc(N3CCO[C@@H](C[C@H](NC(=O)OCc4ccccc4)C(=O)N4CCC[C@@H](C(=O)O)N4)C3)ccc2n1CC(F)(F)F, ester bond, EDCI/HOBt/DIPEA, DCM, 11.25 mM, 16.0 h): 74%

SMILES: CO[C@@H](C)c1ncc(N2CCN(C(=O)OCc3ccccc3)CC2)cc1-c1c2c3cc(ccc3n1CC(F)(F)F)-c1cccc(c1)C[C@H](NC(=O)OC(C)(C)C)C(=O)N1CCC[C@H](N1)C(=O)OCC(C)(C)C2
- ring closure, yield of all isomers (from CO[C@@H](C)c1ncc(N2CCN(C(=O)OCc3ccccc3)CC2)cc1-c1c(CC(C)(C)CO)c2cc(-c3cccc(C[C@H](NC(=O)OC(C)(C)C)C(=O)N4CCC[C@@H](C(=O)O)N4)c3)ccc2n1CC(F)(F)F, ester bond, EDCI/HOBt/DIPEA, DCM, 9.87 mM, 25.0 °C, 12.0 h): 67.9%

SMILES: C=CC(=O)N1CCN(c2nc(=O)n(-c3c(C)ccnc3C(C)C)c3nc(-c4c(O)cccc4F)c(F)cc23)[C@@H](C)C1 [AMG510]
- sensitivity of cell line (SW1573): insensitive

SMILES: CC1(C)COC(=O)[C@@H]2CCCN(N2)C(=O)[C@@H](NC(=O)OC(C)(C)C)Cc2cccc(c2)-c2ccc3[nH]c(I)c(c3c2)C1
- ring closure, yield of all isomers (from CC(C)(CO)Cc1c(I)[nH]c2ccc(-c3cccc(C[C@H](NC(=O)OC(C)(C)C)C(=O)N4CCC[C@@H](C(=O)O)N4)c3)cc12, ester bond, EDCI/HOBt/DIPEA, DCM, 12.8 mM, 0.0 °C, 16.0 h): 79.8%

SMILES: CCn1c(-c2cccnc2[C@H](C)OC)c2c3nc(ccc31)-c1csc(n1)C[C@H](NC(=O)OC(C)(C)C)C(=O)N1CCC[C@H](N1)C(=O)OCC(C)(C)C2
- ring closure, yield of all isomers (from CCn1c(-c2cccnc2[C@H](C)OC)c(CC(C)(C)CO)c2nc(-c3csc(C[C@H](NC(=O)OC(C)(C)C)C(=O)N4CCC[C@@H](C(=O)O)N4)n3)ccc21, ester bond, EDCI HCl/HOBt/DIPEA, DCM, 6.4 mM, 25.0 °C, 16.0 h): 43%

SMILES: CCn1c(-c2cccnc2[C@H](C)OC)c2c3cc(ccc31)N1CCO[C@@H](C[C@H](NC(=O)OCc3ccccc3)C(=O)N3CCC[C@H](N3)C(=O)OCC(C)(C)C2)C1
- ring closure, yield of all isomers (from CCn1c(-c2cccnc2[C@H](C)OC)c(CC(C)(C)CO)c2cc(N3CCO[C@@H](C[C@H](NC(=O)OCc4ccccc4)C(=O)N4CCC[C@@H](C(=O)O)N4)C3)ccc21, ester bond, EDCI/HOBt/DIPEA, DCM, 12.75 mM, 25.0 °C, 16.0 h): 66%

SMILES: CC(C)[Si](Oc1cc2cc(c1)-c1ccc3[nH]c(I)c(c3c1)CC(C)(C)COC(=O)[C@@H]1CCCN(N1)C(=O)[C@@H](NC(=O)OC(C)(C)C)C2)(C(C)C)C(C)C
- ring closure, yield of all isomers (from CC(C)[Si](Oc1cc(C[C@H](NC(=O)OC(C)(C)C)C(=O)N2CCC[C@@H](C(=O)O)N2)cc(-c2ccc3[nH]c(I)c(CC(C)(C)CO)c3c2)c1)(C(C)C)C(C)C, ester bond, EDCI/HOBt/DIPEA, DCM, 22.8 mM, 25.0 °C, 16.0 h): 50%

SMILES: Cc1nc(N2CCC3(CC2)CO[C@@H](C)[C@H]3N)c(CO)nc1-c1cccc(Cl)c1Cl [RMC-4550]
- mice with tumor regression (greater than 10% reduction of tumor volume at end of study) ([1]; single agents: Compound C 60 mg/kg intravenous once weekly, SHP2 inhibitor (RMC-4550) 30 mg/kg daily oral): 5 out of 10

SMILES: CCn1c(-c2cccnc2[C@H](C)OC)c2c3cc(ccc31)N1CCC[C@@H](C[C@H](NC(=O)OCc3ccccc3)C(=O)N3CCC[C@H](N3)C(=O)OCC(C)(C)C2)C1
- ring closure, yield of all isomers (from CCn1c(-c2cccnc2[C@H](C)OC)c(CC(C)(C)CO)c2cc(N3CCC[C@@H](C[C@H](NC(=O)OCc4ccccc4)C(=O)N4CCC[C@@H](C(=O)O)N4)C3)ccc21, ester bond, EDCI/HOBt/DIPEA, DCM, 36.7 mM, 25.0 °C, 6.0 h): 36%

SMILES: CCn1c(-c2cccnc2[C@H](C)OC)c2c3cc(ccc31)-c1cccc(c1)C[C@H](NC(=O)[C@H](C(C)C)N(C)C(=O)C1(F)CCN(C(=O)C#CC(C)(C)N(C)C)CC1)C(=O)N1CCC[C@H](N1)C(=O)OCC(C)(C)C2 (atropisomer, axis not shown) [Compound A699]
- IC50 (NCI-H358 (K-Ras G12C); Homo sapiens, NCI-H358, Table 5, read-out: H358 Cell Viability assay data (K-Ras G12C, IC50)): < 0.01 µM

SMILES: C=CC(=O)N1CC[C@H](C(=O)N(C)[C@H](C(=O)N[C@H]2Cc3cc(O)cc(c3)-c3ccc4c(c3)c(c(-c3ccccc3CCOC)n4CC)CC(C)(C)COC(=O)[C@@H]3CCCN(N3)C2=O)C2CCOCC2)C1 [Compound A6]
- IC50 (NCI-H358 (K-Ras G12C); [3]): 0.1 to 1 µM

SMILES: CCn1c(-c2cccnc2[C@H](C)OC)c2c3cc(ccc31)-c1cccc(c1)C[C@H](NC(=O)[C@H](C(C)C)N1CC[C@]3(CCN(C(=O)C#C[C@H]4COCCN4C)C3)C1=O)C(=O)N1CCC[C@H](N1)C(=O)OCC(C)(C)C2 (atropisomer, axis not shown) [Compound A592]
- IC50 (NCI-H358 (K-Ras G12C); [4]): < 0.01 µM

SMILES: C=CC(=O)N1CC[C@H](C(=O)N(C)[C@H](C(=O)N[C@H]2Cc3cc(O)cc(c3)-c3ccc4c(c3)c(c(-c3ccc(CC(=O)O)cc3)n4CC)CC(C)(C)COC(=O)[C@@H]3CCCN(N3)C2=O)C(C)C)C1 [Compound A21]
- IC50 (NCI-H358 (K-Ras G12C); [3]): > 1 µM

SMILES: CCn1c(-c2cccnc2C(C)OC)c2c3cc(ccc31)-c1cccc(c1)CC(NC(=O)C(C(C)C)N1CCC3(CCN(C(=O)C#CC(C)(C)N4CCC4)C3)C1=O)C(=O)N1CCCC(N1)C(=O)OCC(C)(C)C2 (centres unmarked) [Compound A365]
- IC50 (NCI-H358 (K-Ras G12C); [4]): < 0.01 µM

SMILES: C=CC(=O)N1CC[C@H](C(=O)N(C)[C@H](C(=O)N[C@H]2Cc3cc(O)cc(c3)-c3ccc4c(c3)c(c(-c3cccnc3)n4[C@H](C)C#N)CC(C)(C)COC(=O)[C@@H]3CCCN(N3)C2=O)C(C)C)C1 [A193]
- IC50 (NCI-H358 (K-Ras G12C); [4]): 0.1 to 1 µM

SMILES: C=CC(=O)N1CC[C@H](C(=O)N(C)[C@H](C(=O)N[C@H]2Cc3cc(O)cc(c3)-c3ccc4c(c3)c(c(-c3cccnc3N3CC(OC)C3)n4CC)CC(C)(C)COC(=O)[C@@H]3CCCN(N3)C2=O)C(C)C)C1 [Compound A60]
- IC50 (NCI-H358 (K-Ras G12C); [3]): 0.01 to 0.1 µM
